Counter-ions that a name gives are not always drawn.
target: human ENPP2 (Homo sapiens (Human), UniProt Q13822); assay: Inhibitory activity on human ENPP2 (FS-3 assay); format: biochemical; details: human ENPP2, FS-3 substrate, Table 2
Protocol: Two-fold dilution of each test compound solution (10 μM, 100% dimethyl sulfoxide) is carried out on 96-well V bottom plate (Costar 3363). After ten-fold dilution of each the test compound solution (100% dimethyl sulfoxide) with deionized distilled water, 10 μL of the diluted each compound solution (10% dimethyl sulfoxide) was aliquoted to a black flat bottom 96-well plate (Costar 3915).

Which IC50 does the source give for `O=C(Cn1cc(-c2cnc(NC3Cc4ccccc4C3)nc2)c(OC2CCNCC2)n1)N1CCc2[nH]nnc2C1` [Compound 69, 2-(4-{2-[(2,3-dihydro-1H-inden-2-yl)amino]pyrimidin-5-yl}-3-(piperidin-4-yloxy)-1H-pyrazol-1-yl)-1-{1H,4H,5H,6H,7H-[1,2,3]triazolo[4,5-c]pyridin-5-yl}ethan-1-one] here?
Its IC50 is 4 nM.

How did the IC50 turn out when `O=C(Cn1cc(-c2cnc(NC3Cc4ccccc4C3)nc2)c(CN2CCOCC2)n1)N1CCc2[nH]nnc2C1` [Compound 80, 2-(4-{2-[(2,3-dihydro-1H-inden-2-yl)amino]pyrimidin-5-yl}-3-(morpholin-4-ylmethyl)-1H-pyrazol-1-yl)-1-{1H,4H,5H,6H,7H-[1,2,3]triazolo[4,5-c]pyridin-5-yl}ethan-1-one] was run?
The IC50 was less than 1.56 nM.

For `CN1C(=O)N(c2ccc3[nH]nnc3c2)C2(CCN(C(=O)c3cnc(NCc4cccc(OC(F)(F)F)c4)nc3)CC2)C1=O` [Compound 9, 1-(1H-1,2,3-benzotriazol-5-yl)-3-methyl-8[2-({[3-(trifluoromethoxy)phenyl]methyl}amino)pyrimidine-5-carbonyl]-1,3,8-triazaspiro[4,5]-decane-2,4-dione], which IC50 is on record?
Its IC50 is 9 nM.

`O=C(Cn1cc(-c2cnc(NC3Cc4ccccc4C3)nc2)c(OC2CNC2)n1)N1CCc2[nH]nnc2C1` [Compound 62, 2-[3-(azetidin-3-yloxy)-4-{2-[(2,3-dihydro-1H-inden-2-yl)amino]pyrimidin-5-yl}-1H-pyrazol-1yl]-1-{1H,4H,5H,6H,7H-[1,2,3]triazolo[4,5-c]pyridin-5-yl}ethan-1-one hydrochloride] was tested. Which IC50 did it give?
Its IC50 is 2.4 nM.

For `O=C(Cn1cc(-c2cnc(NC3Cc4ccccc4C3)nc2)c(C(=O)N2CCCCC2)n1)N1CCc2[nH]nnc2C1` [Compound 76, 2-(4-{2-[(2,3-dihydro-1H-inden-2-yl)amino]pyrimidin-5-yl}-3-(piperidine-1-carbonyl)-1H-pyrazol-1-yl)-1-{1H,4H,5H,6H,7H-[1,2,3]triazolo[4,5-c]pyridin-5-yl}ethan-1-one], which IC50 is on record?
The IC50 was 3 nM.

How did the IC50 turn out when `O=C(Cc1nnc(-c2cnc(NC3Cc4ccccc4C3)nc2)o1)Nc1ccc(C(=O)O)cc1` [Compound 50, 4-[2-(5-{2-[(2,3-dihydro-1H-inden-2-yl)amino]pyrimidin-5-yl}-1,3,4-oxadiazol-2-yl)acetamido]benzoic Acid] was run?
Its IC50 is 4.5 nM.

For `O=C(Cn1cc(-c2cnc(NC3Cc4ccccc4C3)nc2)c(OCCN2CCNCC2)n1)N1CCc2[nH]nnc2C1` [Compound 67, 2-(4-{2-[(2,3-dihydro-1H-inden-2-yl)amino]pyrimidin-5-yl}-3-[2-(piperazin-1-yl)ethoxy]-1H-pyrazol-1-yl)-1-{1H,4H,5H,6H,7H-[1,2,3]triazolo[4,5-c]pyridin-5-yl}ethan-1-one], which IC50 is on record?
Its IC50 is 6.1 nM.

How did the IC50 turn out when `O=C(Cc1nnc(-c2cnc(NC3Cc4ccccc4C3)nc2)o1)N1CCc2[nH]nnc2C1` [Compound 33, 2-(5-(2-((2,3-dihydro-1H-inden-2-yl)amino)pyrimidin-5-yl)-1,3,4-oxadiazol-2-yl)-1-(1,4,6,7-tetrahydro-5H-[1,2,3]triazolo[4,5-c]pyridin-5-yl)ethan-1-one] was run?
The IC50 was 2 nM.

Which IC50 does the source give for `O=C(Cn1cc(-c2cnc(NC3Cc4ccccc4C3)nc2)c(C(=O)N2CCNCC2)n1)N1CCc2[nH]nnc2C1` [Compound 77, 2-(4-{2-[(2,3-dihydro-1H-inden-2-yl)amino]pyrimidin-5-yl}-3-(piperazine-1-carbonyl)-1H-pyrazol-1-yl)-1-{1H,4H,5H,6H,7H-[1,2,3]triazolo[4,5-c]pyridin-5-yl}ethan-1-one hydrochloride] here?
Its IC50 is 6.5 nM.

For `CCN1CC(Oc2nn(CC(=O)N3CCc4[nH]nnc4C3)cc2-c2cnc(NC3Cc4ccccc4C3)nc2)C1` [Compound 68, 2-(4-{2-[(2,3-dihydro-1H-inden-2-yl)amino]pyrimidin-5-yl}-3-[(1-ethylazetidin-3-yl)oxy]-1H-pyrazol-1-yl)-1-{1H,4H,5H,6H,7H-[1,2,3]triazolo[4,5-c]pyridin-5-yl}ethan-1-one], which IC50 is on record?
The IC50 was 1.8 nM.

How did the IC50 turn out when `O=C(O)C1=CCN(C(=O)Cc2nnc(-c3cnc(NC4Cc5ccccc5C4)nc3)o2)CC1` [Compound 48, 1-[2-(5-{2-[(2,3-dihydro-1H-inden-2-yl)amino]pyrimidin-5-yl}-1,3,4-oxadiazol-2-yl)acetyl]-1,2,3,6-tetrahydropyridine-4-carboxylic Acid] was run?
The IC50 was 13.3 nM.

Which IC50 does the source give for `O=C1CNCCN1Cc1nn(CC(=O)N2CCc3[nH]nnc3C2)cc1-c1cnc(NC2Cc3ccccc3C2)nc1` [Compound 88, 1-[(4-{2-[(2,3-dihydro-1H-inden-2-yl)amino]pyrimidin-5-yl}-1-(2-oxo-2-{1H,4H,5H,6H,7H-[1,2,3]triazolo[4,5-c]pyridin-5-yl}ethyl)-1H-pyrazol-3-yl)methyl]piperazin-2-one] here?
The IC50 was 4.1 nM.

How did the IC50 turn out when `CN1CCN(Cc2nn(CC(=O)N3CCc4[nH]nnc4C3)cc2-c2cnc(NC3Cc4ccccc4C3)nc2)CC1=O` [Compound 87, 4-[(4-{2-[(2,3-dihydro-1H-inden-2-yl)amino]pyrimidin-5-yl}-1-(2-oxo-2-{1H,2H,3H,4H,5H,6H,7H-[1,2,3]triazolo[4,5-c]pyridin-5-yl}ethyl)-1H-pyrazol-3-yl)methyl]-1-methylpiperazin-2-one] was run?
The IC50 was 3.1 nM.

`O=C(Cn1cc(-c2cnc(NC3Cc4ccccc4C3)nc2)c(OCc2ccccc2)n1)N1CCOCC1` [Compound 64, 2-[3-(benzyloxy)-4-{2-[(2,3-dihydro-1H-inden-2-yl)amino]pyrimidin-5-yl}-1H-pyrazol-1-yl]-1-(morpholin-4-yl)ethan-1-one] was tested. Which IC50 did it give?
The IC50 was 3 nM.

`O=C(Cn1cc(-c2cnc(NC3Cc4ccccc4C3)nc2)c(CN2CCC(F)(F)CC2)n1)N1CCc2[nH]nnc2C1` [Compound 85, 2-{3-[(4,4-difluoropiperidin-1-yl)methyl]-4-{2-[(2,3-dihydro-1H-inden-2-yl)amino]pyrimidin-5-yl}-1H-pyrazol-1-yl}-1-{1H,4H,5H,6H,7H-[1,2,3]triazolo[4,5-c]pyridin-5-yl}ethan-1-one hydrofluoride] was tested. Which IC50 did it give?
Its IC50 is 2.2 nM.

With `O=C(Cn1cc(-c2cnc(NC3Cc4ccccc4C3)nc2)cn1)Nc1ccc2[nH]c(=O)oc2c1` [Compound 57, 2-(4-{2-[(2,3-dihydro-1H-inden-2-yl)amino]pyrimidin-5-yl}-1H-pyrazol-1-yl)-N-(2-oxo-2,3-dihydro-1,3-benzoxazol-6-yl)acetamide] as the molecule, how does the IC50 read?
The IC50 was 2 nM.

`O=C(Cn1cc(-c2cnc(NC3Cc4ccccc4C3)cn2)cn1)N1CCc2[nH]nnc2C1` [Compound 59, 2-(4-{5-[(2,3-dihydro-1H-inden-2-yl)amino]pyrazin-2-yl}-1H-pyrazol-1-yl)-1-{1H,4H,5H,6H,7H-[1,2,3]triazolo[4,5-c]pyridin-5-yl}ethan-1-one] was tested. Which IC50 did it give?
Its IC50 is 11.1 nM.

Which IC50 does the source give for `O=C(Cc1nnc(-c2cnc(NC3Cc4ccccc4C3)nc2)[nH]1)N1CCc2[nH]nnc2C1` [Compound 52, 2-(5-{2-[(2,3-dihydro-1H-inden-2-yl)amino]pyrimidin-5-yl}-4H-1,2,4-triazol-3-yl)-1-{1H,4H,5H,6H,7H-[1,2,3]triazolo[4,5-c]pyridin-5-yl}ethan-1-one] here?
The IC50 was 3.6 nM.

`O=C(Cn1cc(-c2cnc(NC3Cc4ccccc4C3)nc2)c(CN2CC=C(c3ccccc3)CC2)n1)N1CCc2[nH]nnc2C1` [Compound 86, 2-(4-{2-[(2,3-dihydro-1H-inden-2-yl)amino]pyrimidin-5-yl}-3-[(4-phenyl-1,2,3,6-tetrahydropyridin-1-yl)methyl]-1H-pyrazol-1-yl)-1-{3H,4H,5H,6H,7H-[1,2,3]triazolo[4,5-c]pyridin-5-yl}ethan-1-one] was tested. Which IC50 did it give?
Its IC50 is 3 nM.

Which IC50 does the source give for `O=C(Cn1cc(-c2ccc(NC3Cc4ccccc4C3)nc2)cn1)N1CCc2[nH]nnc2C1` [Compound 58, 2-(4-{6-[(2,3-dihydro-1H-inden-2-yl)amino]pyridin-3-yl}-1H-pyrazol-1-yl)-1-{1H,4H,5H,6H,7H-[1,2,3]triazolo[4,5-c]pyridin-5-yl}ethan-1-one] here?
The IC50 was 3.5 nM.

Which IC50 does the source give for `O=C(Cn1cc(-c2cnc(NC3Cc4ccccc4C3)nc2)c(CN2CCc3ccccc32)n1)N1CCc2[nH]nnc2C1` [Compound 83, 2-(4-{2-[(2,3-dihydro-1H-inden-2-yl)amino]pyrimidin-5-yl}-3-(2,3-dihydro-1H-indol-1-ylmethyl)-1H-pyrazol-1-yl)-1-{1H,4H,5H,6H,7H-[1,2,3]triazolo[4,5-c]pyridin-5-yl}ethan-1-one] here?
The IC50 was 2.1 nM.

Which IC50 does the source give for `CCc1c(-c2cnc(NC3Cc4ccccc4C3)nc2)cnn1CC(=O)N1CCc2[nH]nnc2C1` [Compound 78, 2-(4-{2-[(2,3-dihydro-1H-inden-2-yl)amino]pyrimidin-5-yl}-5-ethyl-1H-pyrazol-1-yl)-1-{1H,4H,5H,6H,7H-[1,2,3]triazolo[4,5-c]pyridin-5-yl}ethan-1-one] here?
The IC50 was 2.4 nM.

For `CCc1cc(-c2cnc(NC3Cc4ccccc4C3)nc2)nn1CC(=O)N1CCc2[nH]nnc2C1` [Compound 54, 2-(3-{2-[(2,3-dihydro-1H-inden-2-yl)amino]pyrimidin-5-yl}-5-ethyl-1H-pyrazol-1-yl)-1-{1H,4H,5H,6H,7H-[1,2,3]triazolo[4,5-c]pyridin-5-yl}ethan-1-one], which IC50 is on record?
Its IC50 is 15.8 nM.

For `O=C(Cn1cc(-c2cnc(NC3Cc4ccccc4C3)nc2)c(OC2CCN(CC(F)F)CC2)n1)N1CCc2[nH]nnc2C1` [Compound 71, 2-(3-{[1-(2,2-difluoroethyl)piperidin-4-yl]oxy}-4-{2-[(2,3-dihydro-1H-inden-2-yl)amino]pyrimidin-5-yl}-1H-pyrazol-1-yl)-1-{1H,4H,5H,6H,7H-[1,2,3]triazolo[4,5-c]pyridin-5-yl}ethan-1-one], which IC50 is on record?
The IC50 was 3.6 nM.

system: LPA production in blood serum; assay: Inhibitory activity on LPA production in mouse blood serum; format: biochemical; details: mouse blood serum (m), 18:1 LPC added

`O=C(Cn1cc(-c2cnc(NC3Cc4ccccc4C3)nc2)c(CN2CCOCC2)n1)N1CCc2[nH]nnc2C1` [Compound 80, 2-(4-{2-[(2,3-dihydro-1H-inden-2-yl)amino]pyrimidin-5-yl}-3-(morpholin-4-ylmethyl)-1H-pyrazol-1-yl)-1-{1H,4H,5H,6H,7H-[1,2,3]triazolo[4,5-c]pyridin-5-yl}ethan-1-one] was tested. Which IC50 did it give?
Its IC50 is 6 nM.

With `O=C(Cn1cc(-c2cnc(NC3Cc4ccccc4C3)nc2)c(OC2CNC2)n1)N1CCc2[nH]nnc2C1` [Compound 62, 2-[3-(azetidin-3-yloxy)-4-{2-[(2,3-dihydro-1H-inden-2-yl)amino]pyrimidin-5-yl}-1H-pyrazol-1yl]-1-{1H,4H,5H,6H,7H-[1,2,3]triazolo[4,5-c]pyridin-5-yl}ethan-1-one hydrochloride] as the molecule, how does the IC50 read?
The IC50 was 22 nM.

Which IC50 does the source give for `CCN1CC(Oc2nn(CC(=O)N3CCc4[nH]nnc4C3)cc2-c2cnc(NC3Cc4ccccc4C3)nc2)C1` [Compound 68, 2-(4-{2-[(2,3-dihydro-1H-inden-2-yl)amino]pyrimidin-5-yl}-3-[(1-ethylazetidin-3-yl)oxy]-1H-pyrazol-1-yl)-1-{1H,4H,5H,6H,7H-[1,2,3]triazolo[4,5-c]pyridin-5-yl}ethan-1-one] here?
Its IC50 is 32 nM.

How did the IC50 turn out when `CCOc1nn(CC(=O)N2CCc3[nH]nnc3C2)cc1-c1cnc(NC2Cc3ccccc3C2)nc1` [Compound 61, 2-(4-{2-[(2,3-dihydro-1H-inden-2-yl)amino]pyrimidin-5-yl}-3-ethoxy-1H-pyrazol-1-yl)-1-{1H,4H,5H,6H,7H-[1,2,3]triazolo[4,5-c]pyridin-5-yl}ethan-1-one] was run?
The IC50 was 25 nM.

Source: US11548883B2, “Compounds as autotaxin inhibitors and pharmaceutical compositions comprising the same” (LegoChem Biosciences, Inc., priority 2017, dated 2023)
